Experimental data reported in patent US12065399B2, “Arylsulfonamide derivatives” (Hoffmann-La Roche Inc., priority 2019, dated 2024).
pEC50: −log10 of the molar value.

molecular target: human mGlu4 receptor (Homo sapiens (Human), UniProt Q14833); assay: Intracellular Ca2+ mobilization assay (FLIPR), mGlu4 NAM; format: cell-based; conditions: HEK-293 cells stably transfected with human mGlu4; inhibition of L-AP4 (EC80) response; IC50
Description: 2.1) Intracellular Ca^2+ Mobilization Assay (FLIPR)
A monoclonal HEK-293 cell line stably transfected with a cDNA encoding for the human mGlu4 receptor was generated. Cells were cultured according to standard protocols (Freshney, 2000) in Dulbecco's Modified Eagle Medium with high glucose supplemented with 1 mM glutamine, 10% (vol/vol) heat-inactivated bovine calf serum, penicillin/streptomycin, 50 μg/ml hygromycin and 15 μg/ml blasticidin (all cell culture reagents and antibiotics from Invitrogen, Basel, Switzerland).
About 24 hrs before an experiment, 5×10^4 cells/well were seeded in poly-D-lysine coated, black/clear-bottomed 96-well plates. The cells were loaded with 2.5 μM Fluo-4AM in loading buffer (1×HBSS, 20 mM HEPES) for 1 hr at 37° C. and washed five times with loading buffer. The cells were transferred into a Functional Drug Screening System 7000 (Hamamatsu, Paris, France), and 11 half logarithmic serial dilutions of test compound at 37° C. were added and the cells were incubated for 10-30 min. with on-line recording of fluorescence. Following this pre-incubation step, the agonist (2S)-2-amino-4-phosphonobutanoic acid (L-AP4) was added to the cells at a concentration corresponding to EC80 with on-line recording of fluorescence; in order to account for day-to-day variations in the responsiveness of cells, the EC80 of L-AP4 was determined immediately ahead of each experiment by recording of a full dose-response curve of L-AP4.
Responses were measured as peak increase in fluorescence minus basal (i.e. fluorescence without addition of L-AP4), normalized to the maximal stimulatory effect obtained with saturating concentrations of L-AP4. Graphs were plotted with the % maximal stimulatory using XLfit, a curve fitting program that iteratively plots the data using Levenburg Marquardt algorithm. The single site competition analysis equation used was y=A+((B-A)/(1+((x/C)D))), where y is the % maximal stimulatory effect, A is the minimum y, B is the maximum y, C is the IC50, x is the log 10 of the concentration of the competing compound and D is the slope of the curve (the Hill Coefficient). From these curves the IC50 (drug concentration at which 50% of the receptor activation achieved from the addition of L-AP4 in the experiment was inhibited), the Hill coefficient as well as the maximal response in % of the maximal stimulatory effect obtained with saturating concentrations of L-AP4 were calculated (see FIG. 1).

Chain of human mGlu4 receptor (Q14833 33-912): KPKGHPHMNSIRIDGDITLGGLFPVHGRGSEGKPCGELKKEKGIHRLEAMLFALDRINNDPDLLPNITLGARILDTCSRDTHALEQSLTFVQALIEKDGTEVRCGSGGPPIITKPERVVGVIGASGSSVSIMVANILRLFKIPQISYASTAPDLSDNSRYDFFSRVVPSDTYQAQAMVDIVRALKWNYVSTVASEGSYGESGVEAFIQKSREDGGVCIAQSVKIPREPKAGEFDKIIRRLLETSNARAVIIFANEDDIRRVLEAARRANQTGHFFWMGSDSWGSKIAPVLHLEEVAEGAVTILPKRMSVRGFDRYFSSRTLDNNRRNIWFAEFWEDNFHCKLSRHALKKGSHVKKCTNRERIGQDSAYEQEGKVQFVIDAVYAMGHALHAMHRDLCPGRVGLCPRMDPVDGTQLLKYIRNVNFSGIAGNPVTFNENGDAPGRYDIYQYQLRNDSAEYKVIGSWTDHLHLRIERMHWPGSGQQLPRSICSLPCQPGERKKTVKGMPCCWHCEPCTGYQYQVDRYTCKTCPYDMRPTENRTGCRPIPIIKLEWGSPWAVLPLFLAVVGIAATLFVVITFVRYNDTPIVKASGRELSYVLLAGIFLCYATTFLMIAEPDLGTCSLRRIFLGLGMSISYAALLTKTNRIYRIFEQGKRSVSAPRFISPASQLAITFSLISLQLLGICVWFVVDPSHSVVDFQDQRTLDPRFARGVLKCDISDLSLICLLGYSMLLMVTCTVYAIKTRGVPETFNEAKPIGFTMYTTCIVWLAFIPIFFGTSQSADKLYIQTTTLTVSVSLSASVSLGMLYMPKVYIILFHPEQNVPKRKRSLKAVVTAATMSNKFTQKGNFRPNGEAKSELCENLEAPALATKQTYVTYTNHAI

First: Cc1c(Cl)cc(F)cc1S(=O)(=O)Nc1c(F)cc(C#Cc2cncc(F)c2)cc1F [Example 53, 3-chloro-N-[2,6-difluoro-4-[2-(5-fluoro-3-pyridyl)ethynyl]phenyl]-5-fluoro-2-methyl-benzenesulfonamide]
Second: Cc1cc(Cl)c(C)c(S(=O)(=O)Nc2c(F)cc(C#Cc3cncc(F)c3)cc2F)c1 [Example 54, 3-chloro-N-(2,6-difluoro-4-((5-fluoropyridin-3-yl)ethynyl)phenyl)-2,5-dimethylbenzenesulfonamide 2,2,2-trifluoroacetate]
The pEC50 of the first is 0.24 log units higher: 6.28 for the first, 6.04 for the second. The first is the more potent here.

`Cc1c(Cl)cccc1S(=O)(=O)Nc1c(F)cc(C#Cc2cncc(Cl)c2)cc1F` [Example 55, 3-chloro-N-(4-((5-chloropyridin-3-yl)ethynyl)-2,6-difluorophenyl)-2-methylbenzenesulfonamide] and `Cc1cncc(C#Cc2cc(F)c(NS(=O)(=O)c3cccc(Cl)c3C)c(F)c2)c1` [Example 56, 3-chloro-N-[2,6-difluoro-4-[2-(5-methyl-3-pyridyl)ethynyl]phenyl]-2-methyl-benzenesulfonamide; 2,2,2-trifluoroacetic acid] are within 0.2 log units of each other in pEC50: 5.72 for the first, 5.83 for the second.

First: Cc1c(F)cccc1S(=O)(=O)Nc1c(F)cc(C#Cc2cncc(F)c2)cc1F [Example 57, N-[2,6-difluoro-4-[2-(5-fluoro-3-pyridyl)ethynyl]phenyl]-3-fluoro-2-methyl-benzenesulfonamide; 2,2,2-trifluoroacetic acid]
Second: Cc1cc(F)c(C)c(S(=O)(=O)Nc2c(F)cc(C#Cc3cccc(O)c3)cc2F)c1 [Example 61, N-[2,6-difluoro-4-[2-(3-hydroxyphenyl)ethynyl]phenyl]-3-fluoro-2,5-dimethyl-benzenesulfonamide]
The pEC50 of the first is 0.24 log units higher: 6.24 for the first, 6.00 for the second.

Going from `CC(C)(C)c1cnn(-c2cc(F)c(NS(=O)(=O)c3ccccc3Cl)c(F)c2)c1` [Example 58, N-[4-(4-tert-butylpyrazol-1-yl)-2,6-difluoro-phenyl]-2-chloro-benzenesulfonamide] to `CC(C)(C)c1cnn(-c2cc(F)c(NS(=O)(=O)c3cc(Cl)cc(Cl)c3)c(F)c2)c1` [Example 60, N-[4-(4-tert-butylpyrazol-1-yl)-2,6-difluoro-phenyl]-3,5-dichloro-benzenesulfonamide], the pEC50 rises from 4.88 to 5.17 (0.29 log units).
